From ChEMBL document CHEMBL1151407, “Bisbenzylisoquinoline Alkaloids” (1983)

What was measured:
Format in all cases: functional
[1] = tested on: Lewis lung carcinoma cell line; test: In vivo antitumor activity against mouse Lewis lung carcinoma cells xenografted in mouse assessed as suppression of tumor growth at 100 mg/kg
[2] = In vivo antitumor activity against ascites carcinoma in mouse
[3] = tested on: Ehrlich; test: In vivo antitumor activity against Ehrlich ascite carcinoma in mouse
[4] = tested on: Ehrlich; test: In vivo antitumor activity against mouse Ehrlich ascite carcinoma cells xenografted in mouse assessed as suppression of tumor growth at 70 mg/kg
[5] = tested on: CCRF S-180; test: In vivo antitumor activity against mouse S180 cells xenografted in mouse assessed as suppression of tumor growth at 70 mg/kg

Compound `COc1ccc2cc1Oc1ccc(cc1)C[C@H]1c3cc(OC)c(OC)c(c3CCN1C)Oc1c(OC)c(OC)cc3c1[C@H](C2)N(C)CC3` [THALIDASINE] has an Activity [1] of 58%, an LD50 [2] of 300 mg/kg and an LD50 [3] of 520 mg/kg. For the same compound, the Activity [4] was 50% and the Activity [5] was 20%.
